How the values were obtained:
Format in all cases: cell-based
[1] = test system: human A549 lung cells challenged with South Africa variant (E484K) SARS-CoV-2 spike S1
[2] = test system: human A549 lung cells challenged with UK variant (Alpha or N501Y) SARS-CoV-2 spike S1
[3] = test system: human A549 lung cells challenged with Delta variant SARS-CoV-2 spike S1
[4] = test system: human A549 lung cell line stimulated with Omicron variant SARS-CoV-2 spike S1

| Compound | IL-6 promoter-driven luciferase activity (reporter activity) [1] | IL-6 promoter-driven luciferase activity (reporter activity) [2] | IL-6 promoter-driven luciferase activity (reporter activity) [3] | Omicron variant spike S1-induced expression of TNFα and IL-1β (mRNA and promoter-luciferase activity) [4] |
| --- | --- | --- | --- | --- |
| O=C(O)c1ccc(O)cc1 [4HB, 4-hydroxybenzoate] | significant inhibition | significant inhibition | significant inhibition | Significant inhibition |
| CC(C)=CCO [prenol] | significant inhibition | significant inhibition | significant inhibition | Significant inhibition |
| EDLFYQ (SPIDAR peptide) [wtSPIDAR] | significant inhibition | significant inhibition | significant inhibition | Significant inhibition |
